Measurements: patent US9150508B2, “Sulfonamide compounds and their use in the modulation retinoid-related orphan receptor” (Glaxo Group Limited, priority 2011, dated 2015)

Tests used:
[1] = tested on: IL-17A secreted from antiCD3/CD28 stimulated Peripheral Blood Mononuclear cells (PBMC); assay: Peripheral Blood Mononucleocyte Cell Assay (PBMC Assay-IL-17); format: cell-based; details: inhibition of IL-17A release, CD3/CD28 bead stimulated human PBMC, 48 hours; read-out: mean pIC50 (converted)
Source text: Peripheral Blood Mononucleocyte Cell Assay (PBMC Assay-IL-17)
RORs (Retinoic Acid Related Orphan Receptors) are members of the class 1 nuclear receptor family. RORs regulate gene transcription by binding to specific DNA response element (RORE) as a monomer and have critical roles of in development, immunity, circadian rhythm, and cellular metabolism (recently reviewed by A Jetten, Nuclear Receptor Signaling, 2009, 7, 1-32) One member of this nuclear receptor family, RORγt, has been identified as a regulator of differentiation and development of IL-17-expressing human and mouse CD4+ T cells, so called Th17 cells which play a role in both host defence and inflammatory disorders. RORγt is also required for transcription of the genes encoding IL-17A and IL-17F in iNKT, NKT (Immunol 2009, 2(5), 383-392, J. Immunol, 2008, 180, 51(67), 5171-5171), γδTcells (J. Resp and Crit. Care Med 2010, 182(4), 464-476), CD8^+ Tcell (J Leukocyte Biol, 2007, 82(2), 354-360) and finally CD4-CD8-TCRαβ^+ T cells (J. Immunol. 2008, 181 8761-8766). Additional immune cells such as eosinophils, neutrophils and macrophages can also be source of IL17A in some allergic inflammation related to asthma (J Allergy Clin Immunol 2001, 108, 430-438; J. Immunol, 2008, 181, 6117-6124; Immunity, 2004, 21, 467-476), however, the link with RORγt has not yet been confirmed in the literature.
This assay is designed to measure levels of IL-17A secreted from antiCD3/CD28 stimulated frozen Peripheral Blood Mononuclear cells (PBMC) isolated from human blood with the aim of identifying inhibitors of IL-17A release.
• 1. Ensure no external endotoxin is present in media and reagents used in the assay. • 2. The compounds for screening are dispensed into a master plate at 10 mM top concentration which are serially diluted 1:3 across 11 points in DMSO, then 500 nl is transferred into a 384-well flat-bottomed Greiner plate to which 50 ul of cell suspension is added: for the single shot screening the highest concentration of compound is 10^−5M; for 11 point full curve dose response studies the highest concentration is […]. • Controls: • As a low control, DMSO (as supplied, for example, by VWR) (final concentration 1%) in column 6 (16 points). • As a high control, 5-(4-fluorophenyl)-2-ureidothiophene-3-carboxamide (obtainable from, for example, Sigma) at a final concentration of 10^−4 M in DMSO should be used in column 18 (16 points). • If the compounds dispensed earlier than the day of the assay, they should be kept at −20° C.
Protocol Step 2: Day 1: Thawing and Handing of PBMC • 1. Thaw PBMC in the vial using water bath (37° C.). […] Transfer the contents of the vial into 50 mL Falcon tube. • 3. Add 10 mL of Assay Media drop by drop to decrease the concentration of DMSO (as supplied, for example, by VWR) in the freezing media gradually. • 4. Spin down the cells in a centrifuge (1000 rpm-5 mins). • 5. Decant the supernatant. • 6. Re-suspend the cells in 10 mL of Assay Media. • 7. Transfer of 0.1 mL of suspension into Cedex counting tube. • 8. Add 0.9 mL of media to achieve volume of the suspension for counting up to 1 mL. Count the cells on Cedex using 1:10 dilution factor settings. • 9. Make the cell suspension at the concentration 8×10^5 cells/mL. to give a final number of 40,000 cells/well. Protocol Step 3: Day 1: Stimulation of PBMC with CD3/CD28 beads • 1. Add well mixed CD3/CD28 Dynabeads (as supplied, for example, by Dynal) to achieve ratio bead:cell=2:1 (i.e a dilution of 1 in 20). Mix thoroughly. • 2. Dispense the suspension into the 384 Assay Plates using Multidrop (50 ul per well). • If the volume of cell suspension is large, mix the suspension after dispensing into every other plate. • 3. Cover the plates with the lids and place them to the humidified incubator (37° C., 5% CO2) for 48 hours. Protocol Step 4: Day 2: MSD plates preparation • 1. […]

[2] = target: T1, Human RORγ Ligand Binding Domain (RORγ-LBD) (Homo sapiens, UniProt P51449); assay: Dual Fluorescence Energy Transfer (FRET) assay: RORγ-LBD / SRC1(2) co-activator peptide interaction; format: biochemical; details: RORγ-LBD/SRC1(2) peptide interaction, read-out: mean pIC50 (converted)
T1 construct: His6 plus thrombin site) (N); made in house; host or cells: E. coli BL21(DE3), modified pET21a
T1 sequence (P51449 263-518): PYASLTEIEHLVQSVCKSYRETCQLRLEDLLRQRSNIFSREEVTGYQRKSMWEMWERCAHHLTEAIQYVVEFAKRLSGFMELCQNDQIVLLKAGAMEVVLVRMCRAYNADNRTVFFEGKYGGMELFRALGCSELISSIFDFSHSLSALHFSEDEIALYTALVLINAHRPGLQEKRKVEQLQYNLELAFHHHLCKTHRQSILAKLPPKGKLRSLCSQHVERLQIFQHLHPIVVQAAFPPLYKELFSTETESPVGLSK
Source text: Dual Fluorescence Energy Transfer (FRET) Assay
This assay is based on the knowledge that nuclear receptors interact with cofactors (transcription factors) in a ligand dependent manner. RORγ is a typical nuclear receptor in that it has an AF2 domain in the ligand binding domain (LBD) which interacts with co-activators. The sites of interaction have been mapped to the LXXLL (SEQ ID NO:1) motifs in the co-activator SRC1(2) sequences. Short peptide sequences containing the LXXLL (SEQ ID NO:1) motif mimic the behavior of full-length co-activator.
This assay measures ligand-mediated interaction of the co-activator peptide with the purified bacterial-expressed RORγ ligand binding domain (RORγ-LBD) to indirectly assess ligand binding. RORγ has a basal level of interaction with the co-activator SRC1(2) in the absence of ligand, Thus, it is possible to find ligands that inhibit or enhance the RORγ/SRC1(2) interaction.
Human RORγ Ligand Binding Domain (RORγ-LBD) was expressed in E. coli strain BL21(DE3) as an amino-terminal polyhistidine tagged fusion protein. DNA encoding this recombinant protein was sub-cloned into a modified pET21a expression vector (Novagen). A modified polyhistidine tag (MKKHHHHHHLVPRGS) (SEQ ID NO:2)was fused in frame to residues 263-518 of the human RORγ sequence.
Approximately 50 g E. coli cell pellet was resuspended in 300 mL of lysis buffer (30 mM imidazole pH 7.0 and 150 mM NaCl). Cells were lysed by sonication and cell debris was removed by centrifugation for 30 minutes at 20,000 g at 4° C. The cleared supernatant was filtered through a 0.45 uM cellulose acetate membrane filter. The clarified lysate was loaded onto a column (XK-26) packed with ProBond Nickel Chelating resin (InVitrogen), pre-equilibrated with 30 mM imidazole pH 7.0 and 150 mM NaCl. After washing to baseline absorbance with the equilibration buffer, the column was developed with a gradient from 30 to 500 mM imidazole pH 7.0. Column fractions containing the RORγ-LBD protein were pooled and concentrated to a volume of 5 mLs. The concentrated protein was loaded onto a Superdex 200 column pre-equilibrated with 20 mM Tris-Cl pH 7.2 and 200 mM NaCl. The fractions containing the desired RORγ-LBD protein were pooled together.
Purified RORγ-LBD was buffer exchanged by exhaustive dialysis [3 changes of at least 20 volumes (>8000×)] against PBS [100 mM NaPhosphate, pH 8 and 150 mM NaCl]. The concentration of RORγ-LBD was approximately 30 uM in PBS. Five-fold molar excess of NHS-LC-Biotin (Pierce) was added in a minimal volume of PBS. This solution was incubated with occasional gentle mixing for 60 minutes at ambient room temperature. The modified RORγ-LBD was dialyzed against 2 buffer changes—TBS pH 8.0 containing 5 mM DTT, 2 mM EDTA and 2% sucrose—each at least 20 times of the volume. The modified protein was distributed into aliquots, frozen on dry ice and stored at −80° C. The biotinylated RORγ-LBD was subjected to mass spectrometric analysis to reveal the extent of modification by the biotinylation reagent. In general, approximately 95% of the protein had at least a single site of biotinylation and the overall extent of biotinylation followed a normal distribution of multiple sites ranged from one to five.
A biotinylated peptide corresponding to amino acid 676 to 700 ([…]) (SEQ ID NO:3)of the co-activator steroid receptor coactivator SRC1(2) was generated using similar method.
Biotinylated SRC1(2) solution was prepared by adding an appropriate amount of biotinylated SRC1(2) from the 100 uM stock solution to a buffer containing 10 mM of freshly added DTT from solid to give a final concentration of 40 nM. An appropriate amount of Europium labeled Streptavidin was then added to the biotinylated SRC1(2) solution in a tube to give a final concentration of 10 nM. The tube was inverted gently and incubated for 15 minutes at room temperature. […]

Structure (SMILES)	IC50 [1]	IC50 [2]
Cc1ccc(C)c(N(CC(C)C)S(=O)(=O)c2ccc(OCc3c(C)noc3C)cc2)c1 [Product P37]	≤ 1000 nM	–
Cc1ccc(N(CC(C)C)S(=O)(=O)c2ccc(OCCc3c(C)noc3C)cc2)c(C)c1 [Product P142]	–	≤ 15.8 nM
Cc1ccc(N(CC(C)C)S(=O)(=O)c2ccc(COCc3ccncc3)cc2)c(C)c1 [Product P128]	≤ 1000 nM	–
Cc1cc(C)cc(N(CC(C)C)S(=O)(=O)c2ccc(OCc3c(C)noc3C)cc2)c1 [Product P118]	≤ 1000 nM	–
Cc1noc(C)c1COc1ccc(S(=O)(=O)N(CC(C)C)c2ccc(Cl)c(Cl)c2)cc1 [Product P114]	–	≤ 15.8 nM
Cc1noc(C)c1COc1ccc(S(=O)(=O)N(CC(C)C)c2ccc(C(C)C)cc2)cc1 [Product P28]	≤ 1000 nM	≤ 15.8 nM
Cc1ccc(N(CC(C)C)S(=O)(=O)c2ccc(OCc3ccncn3)cc2)c(C)c1 [Product P143]	≤ 1000 nM	–
Cc1cc(Br)ccc1N(CC(C)C)S(=O)(=O)c1ccc(OCc2c(C)noc2C)cc1 [Product P144]	≤ 1000 nM	–
Cc1ccccc1N(CC(C)C)S(=O)(=O)c1ccc(OCc2c(C)noc2C)cc1 [Product P137]	≤ 1000 nM	–
CCc1ccc(N(CC(C)C)S(=O)(=O)c2ccc(OCc3c(C)noc3C)cc2)cc1 [Product P160, 4-((3,5-dimethylisoxazol-4-yl)methoxy)-N-(4-ethylphenyl)-N-isobutylbenzenesulfonamide]	≤ 1000 nM	≤ 15.8 nM
CCCc1ccc(N(CC(C)C)S(=O)(=O)c2ccc(OCc3c(C)noc3C)cc2)cc1 [Product P31]	≤ 1000 nM	≤ 15.8 nM
Cc1ccc(N(CC(C)C)S(=O)(=O)c2ccc(OCc3ncn(C)n3)cc2)c(C)c1 [Product P132]	≤ 1000 nM	–
Cc1ccc(N(CC(C)C)S(=O)(=O)c2ccc(C(=O)O)cc2)c(C)c1 [Product P179, 4-(N-(2,4-dimethylphenyl)-N-isobutylsulfamoyl)benzoic acid]	> 100000 nM	–
Cc1ccc(N(CC(C)C)S(=O)(=O)c2ccc(OCc3ccncc3)cc2)c(C)c1 [Product P98]	–	≤ 15.8 nM
Cc1noc(C)c1COc1ccc(S(=O)(=O)N(CC(C)C)c2ccc(Cl)cc2)cc1 [Product P30]	≤ 1000 nM	≤ 15.8 nM
Cc1ccc(N(CC(C)C)S(=O)(=O)c2ccc(CCc3ccncc3)cc2)c(C)c1 [Product P140]	≤ 1000 nM	≤ 15.8 nM
Cc1ccc(N(CC(C)C)S(=O)(=O)c2ccc(OCC(O)c3ccncc3)cc2)c(C)c1 (centres unmarked) [Product P150, N-(2,4-dimethylphenyl)-4-(2-hydroxy-2-(pyridin-4-yl)ethoxy)-N-isobutylbenzenesulfonamide]	–	≤ 15.8 nM
Cc1ccc(F)cc1N(CC(C)C)S(=O)(=O)c1ccc(OCc2ccncc2)cc1 [Product P104]	–	≤ 15.8 nM
Cc1ccc(N(CC(C)C)S(=O)(=O)c2ccc(OCc3ncnn3C)cc2)c(C)c1 [Product P147]	≤ 1000 nM	–
Cc1cc(C(C)(C)O)ccc1N(CC(C)C)S(=O)(=O)c1ccc(OCc2c(C)noc2C)cc1 [Product P155, 4-((3,5-dimethylisoxazol-4-yl)methoxy)-N-(4-(2-hydroxypropan-2-yl)-2-methylphenyl)-N-isobutylbenzenesulfonamide]	≤ 1000 nM	–
Cc1ccc(N(CC(C)C)S(=O)(=O)c2ccc(OCCc3ccncc3)cc2)c(C)c1 [Product P141]	–	≤ 15.8 nM
CCCCc1ccc(N(CC(C)C)S(=O)(=O)c2ccc(OCc3c(C)noc3C)cc2)c(C)c1 [Product P23]	≤ 1000 nM	–
Cc1ccc(N(CC(C)C)S(=O)(=O)c2ccc(OCc3c(C)noc3C)cc2)c(C)c1 [Product P24]	≤ 1000 nM	≤ 15.8 nM
Cc1ccc(C(F)(F)F)cc1N(CC(C)C)S(=O)(=O)c1ccc(OCc2c(C)noc2C)cc1 [Product P33]	≤ 1000 nM	≤ 15.8 nM
Cc1ccc(N(CC(C)C)S(=O)(=O)c2ccc(OCc3ccncc3)cc2)c(C)c1 [Product P123]	≤ 1000 nM	–
